Assay [1] deals with ACHN cells. The assay can be described thus: Cellular respiration (XF96 Seahorse, ECAR and OCR). Type of assay: cell-based, human. The conditions noted are these: XF-96 Extracellular Flux Analyzer. Here is the method:
Oxygen consumption and extracellular acidification rates were carried out in a XF96 Seahorse Analyzer (Seahorse Bioscience, Billerica, Mass., USA). Cells were plated in the wells of 96-well plates (8×10^3 cells/well; XF96 plates, Seahorse Bioscience, North Billerica, Mass.) and incubated at 37° C. overnight. The next day, cells were treated with indicated drugs for 24 hours and then the medium was changed to XF Assay Medium and loaded with glucose, oligomycin, and 2-DG, respectively, as manufacture's recommendation.

The test system of assay [2] is PI3K, mTORC1 and mTORC2 signaling. The assay can be described thus: Western blotting of PI3K-AKT-mTOR signaling. Type of assay: cell-based, human. Particulars: added to CYT387. Here is the method: Cells were plated in 6 well dishes and treated the following day with the indicated agents. Treatments were for 24 hours, after which cells were washed with ice cold PBS and lysed with RIPA buffer (Sigma). Phosphatase inhibitor cocktail set II and protease inhibitor cocktail set III (EMD Millipore) were added at the time of lysis. Lysates were centrifuged at 15,000 g×10 min at 4 degrees C. Protein concentrations were calculated based on a BCA assay (Thermo Scientific) generated standard curve. Proteins were resolved using the NuPAGE Novex Mini Gel system on 4% to 12% Bis-Tris Gels (Invitrogen). For western blotting, equal amounts of cell lysates (15-20 μg of protein) were resolved with SDSPAGE, and transferred to membranes. The membrane was probed with primary antibodies, washed, and then incubated with corresponding fluorescent secondary antibodies and washed. The fluorescent signal was captured using LI-COR (Lincoln, Nebr.) Odyssey Imaging System, and fluorescent intensity was quantified using the Odyssey software where indicated. The following antibodies were used for Western blots: p-S6 (S240/244), S6, LC3B, p-Akt(S473), p-Akt(T308), Akt, cleaved caspase3 (Cell Signaling Technologies). p-Stat3 (Y705), Stat3 and β-actin (AC15) (Abcam). Ki67 (Dako) and cleaved caspase3 (Cell Signaling Technologies) were used for immunohistochemistry. […] BX795 and GDC0941 were purchased from Sigma.
In general terms: In western blotting, separated proteins are transferred to a membrane and probed.

The test system of another assay is ACHN xenografts. Kind of assay: ACHN xenograft study. Type of assay: in vivo. As to the method: (§1) 6-week old mice were utilized for human renal cell carcinoma xenografts. For both ACHN and SN12C cell lines 2×10^6 cells were diluted in 50 μl of PBS and 50 μl of Matrigel (BD Biosciences) and were injected subcutaneously into the right and left flank of each mouse. Tumors were monitored until they reached an average size of 50-80 mm3 (approximately 2 weeks), at which point treatments were begun. […] MK2206 (60 mg/kg/day) were administered by oral gavage 2-3 day/week. […] Tumors and mouse weights were measured twice weekly. At least 6-8 mice per treatment group were included. All mice were euthanized using CO2 inhalation followed by cervical dislocation per institutional guidelines at Oregon Health and Science University. Experiments were approved by the Institutional Animal Care and Use Committee at OHSU.
(§2) Immunostaining was performed following deparaffinization and rehydration of slides. Antigen retrieval was performed in a pressure cooker using citrate buffer (pH 6.0) for 4 min. Nonspecific binding was blocked using Vector mouse IgG blocking serum 30 min at room temperature. Samples were incubated at room temperature with rabbit monoclonal antibodies pS6 (CST #5364) cleaved caspase 3 (CST#9661), and Ki67 (Dako#M7240).
Slides were developed with Vector Immpress rabbit IgG (#MP7401) and Vector Immpress mouse IgG (#MP7400) for 30 min at room temperature. Chromogenic detection was performed using Vector Immpact DAB (#SK4105) for 3 min. Slides were counterstained with hematoxylin. A 3DHistech MIDI Scanner (Perkin Elmer) was used to capture whole slide digital images with a 20× objective. Images were converted to into MRXS files and computer graphic analysis was completed using inForm 1.4.0 Advanced Image Analysis Software (Perkin Elmer).
Mouse tumor size was analyzed by 2-way ANOVA with time and drug as factors, using GraphPad Prism. Mouse weight during treatment was analyzed by repeated measures 2-way ANOVA, with time and drug as factors. A P value less than 0.05 was considered statistically significant. Immunohistochemistry: P-values were calculated using one-way ANOVA, with Bonferroni's multiple comparison test. * denotes P<0.05, ** denotes P<0.01, and *** denotes P<0.001 throughout this disclosure. Metabolite fold-changes were computed and visualized in Python script, using the openpyxl package (for importing Excel files) and the matplotlib package (for visualizing fold changes).

The next assay concerns glycolysis. The assay can be described thus: Glucose uptake and lactate excretion as readouts for glycolysis. Format: cell-based, human. The source says:
The PI3K-AKT-mTOR pathway regulates multiple steps in glucose uptake and metabolism.

For assay [3], the system named is SN12C cells. Kind of assay: Cell viability (CellTiter-Glo), SN12C. Type of assay: cell-based, human. The conditions noted are these: 3 days. Here is the method:
Cell viability assays were performed by plating 2000 cells/well in 96-well plates in triplicate and treating the following day with the indicated agent. The experiment was continued for 3 days and then cell viability was determined using CellTiter-Glo assay kit (Promega). The assay was measured using a luminometer. […] Experimental results are the average of at least three independent experiments.

Another assay deals with SN12C xenografts. The assay can be described thus: SN12C xenograft study. Format: in vivo. Particulars: SN12C; CYT387 50 mg/kg/day or MK2206 60 mg/kg/day oral gavage. Here is the method:
as §1, §2
Slides were developed with Vector Immpress rabbit IgG (#MP7401) and Vector Immpress mouse IgG (#MP7400) for 30 min at room temperature. Chromogenic detection was performed using Vector Immpact DAB (#SK4105) for 3 min. Slides were counterstained with hematoxylin. A 3DHistech MIDI Scanner (Perkin Elmer) was used to capture whole slide digital images with a 20× objective. […]
Mouse tumor size was analyzed by 2-way ANOVA with time and drug as factors, using GraphPad Prism. Mouse weight during treatment was analyzed by repeated measures 2-way ANOVA, with time and drug as factors. […] Immunohistochemistry: P-values were calculated using one-way ANOVA, with Bonferroni's multiple comparison test. * denotes P<0.05, ** denotes P<0.01, and *** denotes P<0.001 throughout this disclosure. […]

In assay [4] the test system is ACHN cells. Kind of assay: Apoptosis (Caspase 3/7-Glo), ACHN. Type of assay: cell-based, human. Particulars: ACHN, 72 h. Here is the method:
(§3) Apoptosis was determined using Caspase 3/7-Glo assay kit (Promega) following the manufacturer's instructions. Briefly, 2000 cells per well were plated in 96 well plates and cultured for 72 h. […] Caspase 3/7 activity was measured using a luminometer. Luminescence values were normalized by cell numbers.

In assay [5] the test system is SN12C cells. The assay can be described thus: Apoptosis (Caspase 3/7-Glo), SN12C. Format: cell-based, human. The conditions noted are these: 72 h. As to the method: as §3
For assay [6], the system named is ACHN cells. The assay can be described thus: Lipid droplet staining (Bodipy 493/503), ACHN. Type of assay: cell-based, human. Particulars: 24 hrs; p<0.001 vs control. As to the method: (§4) Cells were grown on coverslips then treated with drug for 24 hours. Cells were fixed in 4% paraformaldehyde for 15 min, rinsed with PBS. Cells were washed with a 1% saponin solution for 15 min at room temperature then washed several times in PBS to remove detergent. Cells were then incubated in Bodipy (ThermoFisher #D3922) at a final concentration of 1 uM for 10 min. Bodipy was removed and slides were rinsed with PBS then air dried and mounted on slides using Dako mounting media with Dapi.

Assay [7] has as its system ACHN cells. The assay can be described thus: Cell viability (CellTiter-Glo), ACHN. Type of assay: cell-based, human. Particulars: ACHN, 3 days. As to the method:
Cell viability assays were performed by plating 2000 cells/well in 96-well plates in triplicate and treating the following day with the indicated agent. The experiment was continued for 3 days and then cell viability was determined using CellTiter-Glo assay kit (Promega).
The assay was measured using a luminometer. […] Experimental results are the average of at least three independent experiments.
On the technique in general: ATP-based viability assays read luminescence as a measure of living cells.

Assay [8] concerns ACHN cells. Kind of assay: Redox homeostasis (p-AMPK, NADPH, GSSG/GSH, ROS). Type of assay: cell-based, human. The conditions noted are these: 2 μM CYT387, 10 μM MK2206, 24 hr. Here is the method: ROS levels were measured with Cellrox Deep Red (Molecular Probes). Cell were plated in a 96 well clear bottom with black sides cell culture plate. […] The complete media+drug was removed after 24 hours and replaced with 5 μM of Cellrox Deep Red in media. Cells were incubated for 30 min at 370 C then washed with PBS. Fluorescence signal was detected using a Bioteck Cytation 5 plate reader. Data was analyzed using Prism software.

Assay [9] deals with Atg5+/+ murine embryonic fibroblasts. Kind of assay: Lipid droplet number in Atg5+/+ MEFs. Format: cell-based, mouse. Particulars: 24 hr. Here is the method: as §4
For assay [10], the system named is Atg5−/− murine embryonic fibroblasts. The assay can be described thus: Lipid droplet number in Atg5−/− MEFs. Format: cell-based, mouse. The conditions noted are these: ATG5 deficient, 24 hr. As to the method:
as §4

Consider `NC1(c2ccc(-c3nc4ccn5c(=O)[nH]nc5c4cc3-c3ccccc3)cc2)CCC1` [MK2206], for which the ECAR entry in the assay with ACHN cells [1] is on record as “significantly reduced the ECAR”. Further, in assay [2], the “effect on mTORC1 activity in cells treated with CYT387” value was “additive inhibitory effect on mTORC1 activity”. Moreover, the “antitumor effect of single agent” value with ACHN xenografts (ACHN, CYT387 50 mg/kg/day or MK2206 60 mg/kg/day oral gavage) is recorded as “exhibited antitumor effect”. Besides, the “number of adipophilin-positive LDs in tumors” value in the assay with ACHN xenografts (treatment day 40, ACHN xenograft tumors, CYT387<MK2206<CYT387+MK2206, p=0.0046) is “significantly and incrementally increased”. In addition, the “lactate/glucose ratio in extracellular media” value with glycolysis (Control: 1.51) came out at 0.81. Besides, the glucose uptake result with glycolysis (in vitro, 18FDG) is reported as “significantly decreased glucose uptake”. Also, the lactate production entry with glycolysis (in vitro, culture media) was “reduced lactate production”. For the same compound, the “proliferation (cell viability)” value with SN12C cells [3] was “some anti-proliferative effects”. Besides, the “antitumor effect of single agent” value with SN12C xenografts is given as “exhibited antitumor effect”. In addition, the “apoptosis (cleaved-caspase 3/7)” value with ACHN cells [4] is “little or no effect on apoptosis”. Also, the “apoptosis (cleaved-caspase 3/7)” value in the assay on SN12C cells [5] is reported as “little or no effect on apoptosis”. In the assay with ACHN cells [6], the “number of lipid droplets” value is “increase in the number of lipid droplets” and the “size of lipid droplets” value is on record as “increase in the size of lipid droplets”. Besides, the “proliferation (cell viability)” value in the assay on ACHN cells [7] is on record as “some anti-proliferative effects”. Also, in the assay with ACHN cells [8], the GSSG/GSH ratios entry was “maintains GSSG/GSH ratios”, the NADPH levels entry is “increases NADPH levels”, the ROS entry is reported as “mitigates ROS” and the p-AMPK entry is “activates p-AMPK”. Also, the LD numbers entry in assay [9] was “significantly increase LD numbers”. The lipid droplets result in [10] was “no increase in lipid droplets”.
